Data reported in patent US20210161997A1, “TREATING DISEASES VIA TARGETED MODULATION OF GENE SIGNALING NETWORKS” (Camp4 Therapeutics Corporation, priority 2018, published 2021).

Experiments:
MECP2 mRNA [1] = test: qPCR of MECP2 mRNA in mouse hepatocytes; details: 10 uM, qPCR relative to DMSO control (FIG. 8)
Text: (§1) Samples were amplified using Taqman probes from ThermoFisher.

MECP2 mRNA [2] = test: MECP2 mRNA in primary human hepatocytes (donor 1, donor 2); format: cell-based; details: two donors, indicated dosages vs DMSO (FIGS. 10A and 10B)
In short: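 Cryopreserved primary human hepatocytes from separate donors were placed on serum-free or modified maintenance medium and then treated with compound for about 16–18 h. MECP2 mRNA was measured by TaqMan qPCR.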

ANGPTL3 = test: RNA-seq of ANGPTL3 expression in compound-treated primary human hepatocytes; format: cell-based; details: additional compounds (Table 13), linear fold change
In short: (§2)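 Cryopreserved primary human hepatocytes from three donors, plated at 375,000 cells/well, switched to complete or modified maintenance medium, then dosed with compound (stocks at 1000× final) for about 18 h. Poly(A) mRNA was sequenced directionally, mapped to GRCh38 with STAR, and gene-level abundance (counts, FPKM) estimated with RSEM against GENCODE 24.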

SERPINC1 mRNA [3] = test: Quantitative PCR of SERPINC1 mRNA in primary human hepatocytes (Lonza Hu4282) treated with compounds; format: cell-based; details: quantitative PCR; for SERPINC1 mRNA, Lonza Hu4282, 1 uM / SERPINC1 mRNA, Lonza Hu4282, 10 uM: primary human hepatocytes Lonza Hu4282; for SERPINC1 mRNA, Lonza Hu4282, 1 uM / SERPINC1 mRNA, H8290, 1 uM: compound 1 uM; for SERPINC1 mRNA, Lonza Hu4282, 10 uM / SERPINC1 mRNA, H8290, 10 uM: compound 10 uM; for SERPINC1 mRNA, H8290, 1 uM / SERPINC1 mRNA, H8290, 10 uM: hepatocytes H8290
SERPINC1 mRNA [4] = test: Quantitative PCR of SERPINC1 mRNA in mouse hepatocytes treated with compounds; format: cell-based; details: for SERPINC1 mRNA, Mouse Heps, 1 uM: compound 1 uM; for SERPINC1 mRNA, Mouse Heps, 10 uM: compound 10 uM
Method: as §1
In some examples, RQ Min and RQ Max values are also reported. RQ Min and RQ Max are the minimum and maximum relative levels of gene expression in the test samples, respectively. They were calculated using the confidence level set in the analysis settings and the confidence level was set to one standard deviation (SD). These values were calculated using standard deviation as follows: […].
Compounds were tested in hepatocytes for upregulation of SERPINC1 mRNA for identification of potential treatments of SERPINC1/AT III deficiency.

SERPINC1 mRNA [5] = test: RNA seq of SERPINC1 in MGH54 cells treated with select compounds; format: cell-based, human; details: compound 10 uM
SERPINC1 = test: RNA-seq of SERPINC1 expression in compound-treated primary human hepatocytes; format: cell-based; details: significance FPKM ≥1, log 2(fold change) ≥0.5, q-value ≤0.05
Method: Human hepatocytes were obtained from two donors from Massachusetts General Hospital, namely MGH54 and MGH63, and one donor from Lonza, namely HUM4111B. Cryopreserved hepatocytes were cultured in plating media for 16 hours, transferred to maintenance media for 4 hours. Cultured on serum-free media for 2 hours, then a compound was added. The hepatocytes were maintained on the serum-free media for 16 hours prior to gene expression analysis. Primary human hepatocytes were stored in the vapor phase of a liquid nitrogen freezer (about -130° C.). Human hepatocytes cultured as described above were plated in 24-well format, adding 375,000 cells per well in a volume of 500 ul plating medium. Four hours before treatment, cells were washed with PBS and the medium was changed to either: fresh maintenance medium (complete) or modified maintenance medium. Compound stocks were prepared at 1000× final concentration and added in a 2-step dilution to the medium to reduce risk of a compound precipitating out of solution when added to the cells, and to ensure reasonable pipetting volumes. […] The plate was mixed by carefully swirling and after all wells were treated and returned to the incubator overnight. If desired, separate plates/wells were treated with vehicle-only controls and/or positive controls. If using multi-well plates, controls were included on each plate. After about 18 hours, cells were harvested for further analysis, e.g., ChIP-seq, RNA-seq, ATAC-seq, etc. This protocol is a modified version of the following protocols: MagMAX mirVana Total RNA Isolation Kit User Guide (Applied Biosystems #MAN0011131 Rev B.0), NEBNext Poly(A) mRNA Magnetic Isolation Module ([…]), and NEBNext Ultra Directional RNA Library Prep Kit for Illumina ([…]) (New England Biosystems #E74901). […] Two hundred μl of Lysis Binding Mix was used per well of the multiwell plate containing adherent cells (usually a 24-well plate). For mRNA isolation and library prep, the NEBNext Poly(A) mRNA Magnetic Isolation Module and Directional Prep kit was used. RNA isolated from cells above was quantified, and prepared in […] of each sample in 50 μl of nuclease-free water. This protocol may be run in microfuge tubes or in a 96-well plate. […] Genomic alignments were converted to transcriptome alignments based on reference transcript annotations from the Human GENCODE Gene Set release 24 (Harrow et al., Genome Res. […] Using unique and multimapped transcriptomic alignments, gene-level abundance estimates were computed using RSEM version 1.3.0 (Li and Dewey, BMC Bioinformatics (2011) 12:323) in a strand-aware manner, and including confidence interval sampling calculations, to arrive at posterior mean estimates (PME) of abundances (counts and normalized FPKM-fragments per kilobase of exon per million mapped fragments) from the underlying Bayesian model. Standard QC were applied (read integrity, mapping statistics, library complexity, fragment bias) to remove unsatisfactory samples. Differential gene expression was computed using the negative binomial model implemented by DESeq2 version 1.16.1 (Love et al., Genome Biol. (2014) 15(12):550). […] RNA-seq signals were also normalized by read depth and visualized using the UCSC browser. To identify small molecules that modulate target gene expression, primary human hepatocytes were prepared as a monoculture, and at least one small molecule compound was applied to the cells. RNA-seq was performed to determine the effects of the compounds on the expression of the target genes in hepatocytes. Fold change was calculated by dividing the level of expression in the cell system that had been perturbed by the level of expression in an unperturbed system.

UGT1A1 = test: RNA-seq of UGT1A1 expression in compound-treated primary human hepatocytes; format: cell-based
In short: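 Cryopreserved primary human hepatocytes from three donors were plated in 24-well format, then treated with compound diluted from 1000× stocks in serum-free maintenance medium for about 16–18 h. Poly(A) RNA-seq log2 fold change was computed against vehicle/pan-experiment controls. Significance required FPKM ≥1, log2FC ≥0.5 and q ≤0.05.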

APOL1 mRNA = APOL1 mRNA in primary human hepatocytes treated with Momelotinib or metabolite M21; format: cell-based; details: 3.3 uM vs DMSO (FIG. 11, FIG. 12)
FN1 = test: RNA-seq of FN1 expression in compound-treated primary human hepatocytes; format: cell-based; details: perturbed vs unperturbed, significance FPKM ≥1, log 2(fold change) ≥0.5, q-value ≤0.05
In short: as §2

HMBS = test: RNA-seq of HMBS expression in compound-treated primary human hepatocytes; format: cell-based
Method: Human hepatocytes were obtained from two donors from Massachusetts General Hospital, namely MGH54 and MGH63, and one donor from Lonza, namely HUM4111B. Cryopreserved hepatocytes were cultured in plating media for 16 hours, transferred to maintenance media for 4 hours. Cultured on serum-free media for 2 hours, then a compound was added. The hepatocytes were maintained on the serum-free media for 16 hours prior to gene expression analysis. Primary human hepatocytes were stored in the vapor phase of a liquid nitrogen freezer (about −130° C.).
Human hepatocytes cultured as described above were plated in 24-well format, adding 375,000 cells per well in a volume of 500 ul plating medium. Four hours before treatment, cells were washed with PBS and the medium was changed to either: fresh maintenance medium (complete) or modified maintenance medium.
Compound stocks were prepared at 1000× final concentration and added in a 2-step dilution to the medium to reduce risk of a compound precipitating out of solution when added to the cells, and to ensure reasonable pipetting volumes. […]
For mRNA isolation and library prep, the NEBNext Poly(A) mRNA Magnetic Isolation Module and Directional Prep kit was used. RNA isolated from cells above was quantified, and prepared in […] of each sample in 50 μl of nuclease-free water. […]

Structure (SMILES): C=CCNC1=C2C[C@@H](C)C[C@H](OC)[C@H](O)[C@@H](C)/C=C(\C)[C@H](OC(N)=O)[C@@H](OC)/C=C\C=C(/C)C(=O)NC(=CC1=O)C2=O [17-AAG (Tanespimycin), Tanespimycin]
- MECP2 mRNA change in mouse hepatocytes (MECP2 mRNA [1]): increased
- MECP2 mRNA change in primary human hepatocytes (MECP2 mRNA [2]): dose-dependent increase

Structure (SMILES): COc1ccc(-c2ccc3c(N4CCOC[C@@H]4C)nc(N4CCOC[C@@H]4C)nc3n2)cc1CO [AZD8055]
- ANGPTL3-LINEAR FOLD CHANGE (ANGPTL3): 0.4965
- SERPINC1 mRNA, Lonza Hu4282, 1 uM (SERPINC1 mRNA [3]): 1.3
- SERPINC1 mRNA, Lonza Hu4282, 10 uM (SERPINC1 mRNA [3]): 1.61
- SERPINC1 mRNA, Mouse Heps, 1 uM (SERPINC1 mRNA [4]): 3.2
- SERPINC1 mRNA, Mouse Heps, 10 uM (SERPINC1 mRNA [4]): 3.4
- SERPINC1, MGH54 (RNA seq), 10 uM (SERPINC1 mRNA [5]): 0

Structure (SMILES): O=C1CCc2c(Oc3ccc4c(c3)[C@@H]3[C@H](O4)[C@H]3c3nc4cc(C(F)(F)F)ccc4[nH]3)ccnc2N1 [Lifirafenib (BGB-283)/BeiGene]
- SERPINC1 mRNA, H8290, 1 uM (SERPINC1 mRNA [3]): 1.1
- SERPINC1 mRNA, H8290, 10 uM (SERPINC1 mRNA [3]): 2.1
- SERPINC1 mRNA, Lonza Hu4282, 1 uM (SERPINC1 mRNA [3]): 1.05
- SERPINC1 mRNA, Lonza Hu4282, 10 uM (SERPINC1 mRNA [3]): 1.21
- SERPINC1 mRNA, Mouse Heps, 1 uM (SERPINC1 mRNA [4]): 0.81
- SERPINC1 mRNA, Mouse Heps, 10 uM (SERPINC1 mRNA [4]): 1.1
- SERPINC1, MGH54 (RNA seq), 10 uM (SERPINC1 mRNA [5]): 1.43

Structure (SMILES): N#CCNC(=O)c1ccc(-c2ccnc(Nc3ccc(N4CCOCC4)cc3)n2)cc1 [Momelotinib]
- SERPINC1 Fold Change (Log2) (SERPINC1): 0.93 Log2
- UGT1A1 Fold Change (Log2) (UGT1A1): 1.05 Log2
- APOL mRNA change in primary human hepatocytes (APOL1 mRNA): Downregulation

Structure (SMILES): CC(=O)NCC(=O)N1[C@@H]2CC[C@H]1c1ccc(Nc3ncc(C(F)(F)F)c(NC4CCC4)n3)cc12 [PF-3814735]
- ANGPTL3-LINEAR FOLD CHANGE (ANGPTL3): 0.4383
- SERPINC1 mRNA, Lonza Hu4282, 1 uM (SERPINC1 mRNA [3]): 0.99
- SERPINC1 mRNA, Lonza Hu4282, 10 uM (SERPINC1 mRNA [3]): 2.6
- SERPINC1 mRNA, Mouse Heps, 1 uM (SERPINC1 mRNA [4]): 1.2
- SERPINC1 mRNA, Mouse Heps, 10 uM (SERPINC1 mRNA [4]): 1.86
- SERPINC1, MGH54 (RNA seq), 10 uM (SERPINC1 mRNA [5]): 2.43

Structure (SMILES): CN1CCN(c2nc(C3=C(c4c[nH]c5ccccc45)C(=O)NC3=O)c3ccccc3n2)CC1 [Sotrastaurin]
- FN1 Fold Change (Log2) (FN1): −0.81 Log2
- HMBS Fold Change (Log2) (HMBS): 0.78 Log2
- UGT1A1 Fold Change (Log2) (UGT1A1): 0.88 Log2

Structure (SMILES): CCn1c(=O)c(-c2cc[nH]n2)cc2c(C)nc(N)nc21 [Voxtalisib]
- SERPINC1 mRNA, H8290, 1 uM (SERPINC1 mRNA [3]): 1.2
- SERPINC1 mRNA, H8290, 10 uM (SERPINC1 mRNA [3]): 1.5
- SERPINC1 mRNA, Lonza Hu4282, 1 uM (SERPINC1 mRNA [3]): 1.1
- SERPINC1 mRNA, Lonza Hu4282, 10 uM (SERPINC1 mRNA [3]): 1.24
- SERPINC1 mRNA, Mouse Heps, 1 uM (SERPINC1 mRNA [4]): 1.23
- SERPINC1 mRNA, Mouse Heps, 10 uM (SERPINC1 mRNA [4]): 2.4
- SERPINC1, MGH54 (RNA seq), 10 uM (SERPINC1 mRNA [5]): 0
